Laboratory results from publication PMC7216583 (Parasites & Vectors, 2020).
Structures can show the parent of a compound that is named as a salt.

How the values were obtained:
VEGFR2 = test system: VEGFR2; parameters: method as in library vendor description; details: ref library vendor description; cited from earlier work
FGFR1 = test system: FGFR1; parameters: method as in library vendor description; details: ref library vendor description; cited from earlier work
VEGFR1 = test system: VEGFR1; parameters: method as in library vendor description; details: ref library vendor description; cited from earlier work
Flk1 = test system: Flk1; parameters: method as in library vendor description; details: ref library vendor description; cited from earlier work
[1] = test system: Toxoplasma gondii RH-2F tachyzoites; test: microbe, parasite or virus in culture; details: 72 h, read-out: Parasite inhibition (%) mean, preliminary screen, mean
G551D-CFTR = test system: G551D-CFTR; parameters: method as in library vendor description; details: potentiator; ref library vendor description; cited from earlier work
F508del-CFTR = test system: F508del-CFTR; parameters: method as in library vendor description; details: potentiator; ref library vendor description; cited from earlier work
δ-opioid receptor = target: δ-opioid receptor; parameters: method as in library vendor description; details: agonist; ref library vendor description; cited from earlier work
in vitro = details: human
DHFR = details: read-out: Ki DHFR; ref library vendor description; cited from earlier work

In the case of `Cc1cc2c(F)c(Oc3ncnn4cc(OC[C@@H](C)OC(=O)[C@H](C)N)c(C)c34)ccc2[nH]1` [Brivanib alaninate (BMS-582664)], the IC50 (VEGFR2) is given as 25 nM, the IC50 (FGFR1) is given as 148 nM and the IC50 (VEGFR1) is given as 380 nM. For the same compound, the IC50 (Flk1) was 89 nM and the inhibition of growth at 5 µM [1] was 7.1%.

In the case of `CC(C)(C)c1cc(C(C)(C)C)c(NC(=O)c2c[nH]c3ccccc3c2=O)cc1O` [Ivacaftor (VX-770)], the EC50 (G551D-CFTR) is listed as 100 nM, the EC50 (F508del-CFTR) is listed as 25 nM and the inhibition of growth at 5 µM [1] is listed as 0.6%.

In the case of `CCN(CC)C(=O)c1ccc(C2=CC3(CCNCC3)Oc3cccc(O)c32)cc1` [ADL5859 HCl], the Ki (δ-opioid receptor) is listed as 0.8 nM and the inhibition of growth at 5 µM [1] is listed as 1.1%.

In the case of `Nc1nc(=O)c2c(CCc3ccc(C(=O)N[C@H](CCC(=O)O)C(=O)O)cc3)c[nH]c2[nH]1` [Pemetrexed (Alimta)], the viability (in vitro) is given as 84.6% and the Ki (DHFR) is given as 7.2 nM.
